Reference: patent US20240390432A1, “ENGINEERED VECTORS AND ORGANISMS CONTAINING THE SAME FOR ISOFLAVONE CONVERSION IN THE GUT” (Board of Regents, The University of Texas System, priority 2021, published 2024)

How the values were obtained:
[1] = Equol-producing postmenopausal women, purified supplement; cited from earlier work
[2] = Serum Equol levels of mice given soy hydrogel and probiotic via drinking water; assay type: in vivo; conditions: mouse, oral, positive control: Equol supplemented directly in hydrogel, no Nissle strains
Description: Serum Equol levels of the mice were measured after 1 week of consumption of a low or high soy content supplement (1× or 8× soy loaded hydrogel). […] Two sets of negative controls were provided as reference. […] In addition, a positive control group consumed Equol that was supplement directly in the hydrogel to reveal, as expected, a very high elevation in serum Equol concentration reaching almost 5 μM without the addition of the engineered Nissle P1 and Nissle P2 strains.

ERbeta = ERbeta (Homo sapiens, UniProt Q92731); conditions: unlike products activating ERalpha, androgen, glucocorticoid, progesterone, mineralocorticoid receptors; cited from earlier work
Chain of ERbeta (Q92731 whole entry, species assumed): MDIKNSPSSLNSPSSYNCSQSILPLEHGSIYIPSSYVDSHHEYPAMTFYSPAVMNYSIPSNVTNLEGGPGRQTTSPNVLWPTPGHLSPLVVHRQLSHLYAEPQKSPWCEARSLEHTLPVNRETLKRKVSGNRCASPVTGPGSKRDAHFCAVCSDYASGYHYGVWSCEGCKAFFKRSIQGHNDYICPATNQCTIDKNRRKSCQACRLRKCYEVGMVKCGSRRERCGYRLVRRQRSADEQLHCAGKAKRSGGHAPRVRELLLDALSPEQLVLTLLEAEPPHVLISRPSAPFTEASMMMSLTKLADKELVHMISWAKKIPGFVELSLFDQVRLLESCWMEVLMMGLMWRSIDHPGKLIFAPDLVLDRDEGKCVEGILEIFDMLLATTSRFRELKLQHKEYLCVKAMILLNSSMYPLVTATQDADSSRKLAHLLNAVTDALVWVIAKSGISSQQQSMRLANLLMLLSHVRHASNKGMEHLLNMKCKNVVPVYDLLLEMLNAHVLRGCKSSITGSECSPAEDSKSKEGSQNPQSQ

concentration at 1 week [2] [µM] | Structure (SMILES) | effect on serum LDL-C and C-reactive protein [1] | receptor selectivity (ERbeta)
 | O=c1c(-c2ccc(O)cc2)coc2cc(O)ccc12 [Daidzein] | not seen | 
~5 | Oc1ccc([C@H]2COc3cc(O)ccc3C2)cc1 [Equol] |  | selective agonist for ERbeta
